“And” between values parts separate entries of the source, which are not always exact repeats. Equal entries are not always repeated. Where two headings read alike, the source gives them in different places.

Data on 16 compounds can be found in patent US8378117B2 (priority 2005, dated 2013).

Assay [1] deals with T1, CB2 receptor (Homo sapiens, UniProt P34972).
T1 construct: expressed in transfected cells
The assay can be described thus: Binding assay for CB2 agonists or inverse agonists (SK-N-MC membranes, [3H]-CP-55,940). The note with it: for CB2 receptor binding percent inhibition: test concentration not stated. Put shortly:
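Membranes from SK-N-MC cells stably expressing human CB2 were incubated with radioligand and test compounds for 90 min at 30 °C in Tris-HCl buffer, pH 7.5, with MgCl2, EDTA and fatty-acid-free BSA. Filter-bound radioactivity was counted; IC50 was derived by linear regression of percent inhibition.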

Assay [2] concerns the target T2, CB1 receptor (Homo sapiens, UniProt P21554).
T2 construct: expressed in transfected cells
Kind of assay: cell-based. The method in brief: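 SK-N-MC cells stably co-expressing human CB1 and a CRE-β-galactosidase reporter; forskolin-induced β-gal activity measured after compound treatment, as % of vehicle-treated cells (100%). EC50 by linear regression from concentration series; otherwise % change at a single concentration.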

Assay [3] has as its target T2, CB1 receptor. Kind of assay: Binding assay for CB1 agonists or inverse agonists (SK-N-MC membranes, [3H]-CP-55,940). The note with it: for inhibition at 0.2 µM: read-out: CB1 receptor binding percent inhibition, test concentration 0.2 μM (footnote 2); for CB1 receptor binding percent inhibition: test concentration not stated; for IC50: Cannabinoid CB1 Receptor Binding IC50, calculated by linear regression from percent inhibition at various test concentrations. Put shortly: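 Membranes from SK-N-MC cells stably expressing human CB1 incubated with compound and [3H]-CP-55,940 ([…]) for 90 min at 30° C in Tris-HCl pH 7.5, MgCl2, EDTA, fatty-acid-free BSA. Non-specific binding defined with 10 uM WIN 55,212; filtration, scintillation count; IC50 by linear regression.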

Where [4] appears, read: read-out: CB2 receptor binding percent inhibition, test concentration 0.2 μM (footnote 2).
Where [5] appears, read: CB1 Receptor Functional Inverse Agonist EC50, forskolin induced β-galactosidase activity, SK-N-MC cells.
The mark [6] stands for this setting: read-out: CB1 receptor binding percent inhibition.
The mark [7] stands for this setting: read-out: CB1 receptor binding percent inhibition, test concentration 1 μM (footnote 1).
Where [8] appears, read: CB1 Receptor Functional Agonist EC50, SK-N-MC cells, forskolin induced β-galactosidase activity.

T1 sequence (P34972 whole entry): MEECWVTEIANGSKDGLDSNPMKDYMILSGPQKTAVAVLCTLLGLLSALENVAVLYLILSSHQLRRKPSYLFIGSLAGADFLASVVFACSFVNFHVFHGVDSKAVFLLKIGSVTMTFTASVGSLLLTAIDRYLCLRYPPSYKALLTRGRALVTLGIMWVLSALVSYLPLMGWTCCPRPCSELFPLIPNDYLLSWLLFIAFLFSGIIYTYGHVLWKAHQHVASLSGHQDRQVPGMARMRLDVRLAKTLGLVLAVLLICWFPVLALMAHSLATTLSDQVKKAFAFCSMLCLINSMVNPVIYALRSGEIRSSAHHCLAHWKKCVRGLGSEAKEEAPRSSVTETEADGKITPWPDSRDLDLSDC
T2 sequence (P21554 whole entry): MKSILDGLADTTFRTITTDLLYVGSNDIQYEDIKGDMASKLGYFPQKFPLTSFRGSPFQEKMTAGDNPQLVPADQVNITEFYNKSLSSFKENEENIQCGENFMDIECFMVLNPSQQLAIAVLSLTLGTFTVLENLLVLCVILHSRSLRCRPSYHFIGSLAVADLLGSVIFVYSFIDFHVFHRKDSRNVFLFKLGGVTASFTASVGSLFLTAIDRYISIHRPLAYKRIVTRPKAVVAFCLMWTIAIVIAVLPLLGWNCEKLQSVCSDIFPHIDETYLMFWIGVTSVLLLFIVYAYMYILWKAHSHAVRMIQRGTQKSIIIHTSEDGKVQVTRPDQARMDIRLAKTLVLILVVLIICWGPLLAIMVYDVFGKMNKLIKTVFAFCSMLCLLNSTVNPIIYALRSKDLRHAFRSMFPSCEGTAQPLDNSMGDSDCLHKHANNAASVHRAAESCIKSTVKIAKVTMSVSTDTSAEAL

By EC50 is commonly meant the midpoint of the concentration-response curve. For the compound `O=C(Nc1ccccn1)c1nn(-c2ccc(Cl)cc2Cl)c2c1CCCC/C2=C\c1ccc(Cl)cc1` [Cpd 152, (8E)-8-(4-chloro-benzylidene)-1-(2,4-dichloro-phenyl)-1,4,5,6,7,8-hexahydro-cycloheptapyrazole-3-carboxylic acid pyridin-2-ylamide], the inhibition at 0.2 µM in assay [1] (test concentration 0.2 μM (footnote 2), read-out: CB2 receptor binding percent inhibition) was determined as 21%; in assay [3] it was 66%. In addition, the EC50 in assay [2] (forskolin induced β-galactosidase activity, SK-N-MC cells, read-out: CB1 Receptor Functional Inverse Agonist EC50) is 200 nM. Further, in assay [3] (read-out: CB1 receptor binding percent inhibition, test concentration 0.0125 μM (footnote 13)), the inhibition at 0.0125 µM turned out to be 28%. Moreover, in assay [3], the “CB1 receptor binding percent inhibition” value is recorded as 47%.
Usually IC50 stands for the concentration needed to halve the response being measured. As to `CC(C)(NC(=O)c1nn(-c2ccc(Cl)cc2Cl)c2c1CCCC/C2=C\c1ccc(F)cc1)c1ccccc1` [Cpd 205, (8E)-1-(2,4-dichloro-phenyl)-8-(4-fluoro-benzylidene)-1,4,5,6,7,8-hexahydro-cycloheptapyrazole-3-carboxylic acid (1-methyl-1-phenyl-ethyl)-amide], the inhibition at 0.2 µM in assay [1] (setting [4]) worked out at 27%. In assay [2] (setting [5]), this compound gave an EC50 of 9 nM. In addition, in assay [3], the 50% inhibitory concentration (IC50) was 20 nM and the inhibition at 0.2 µM was 93%.
As for `CCOC(=O)[C@@H]1C2CCC(C2)[C@@H]1NC(=O)c1nn(-c2ccc(F)cc2F)c2c1CCCCC2Cc1ccc(F)cc1` (stereo partly drawn) [Cpd 110, (2R,3S)-3-{[1-(2,4-difluoro-phenyl)-8-(4-fluoro-benzyl)-1,4,5,6,7,8-hexahydro-cycloheptapyrazole-3-carbonyl]-amino}-bicyclo[2.2.1]heptane-2-carboxylic acid ethyl ester], the “CB2 receptor binding percent inhibition” value in assay [1] stood at 59%. This compound displayed a concentration for a half-maximal effect (EC50) in assay [2] (setting [5]) of 100 nM. In assay [3] (setting [6]), the inhibition at 0.5 µM turned out to be 48% and the inhibition at 1 µM amounted to 63%. Besides, the “CB1 receptor binding percent inhibition” value in assay [3] is 56%.
Regarding `O=C(NN1CCOCC1)c1nn(-c2ccc(Cl)cc2Cl)c2c1CCCC/C2=C\c1ccc(F)cc1` [Cpd 151, (8E)-1-(2,4-dichloro-phenyl)-8-(4-fluoro-benzylidene)-1,4,5,6,7,8-hexahydro-cycloheptapyrazole-3-carboxylic acid morpholin-4-ylamide], the inhibition at 0.2 µM in assay [1] (setting [4]) worked out at 15%; in assay [3] it was 51%. The compound further came in with a half-maximal effective concentration (EC50) in assay [2] (setting [5]) of 60 nM.
Regarding `C[C@@H](NC(=O)c1nn(-c2ccc(Cl)cc2Cl)c2c1CCCC/C2=C\c1ccc(F)cc1)c1ccccc1` [Cpd 146, (8E)-1-(2,4-dichloro-phenyl)-8-(4-fluoro-benzylidene)-1,4,5,6,7,8-hexahydro-cycloheptapyrazole-3-carboxylic acid [(1R)-1-phenyl-ethyl]-amide], the half-maximal inhibitory concentration (IC50) is 2300 nM in assay [1] (Cannabinoid CB2 Receptor Binding IC50, calculated by linear regression from percent inhibition at various test concentrations); 8 nM and 10 nM in assay [3]. The figures for the inhibition at 0.2 µM in assay [1] (setting [4]) and in assay [3] were 10% and 93%, respectively. In assay [1], the “CB2 receptor binding percent inhibition” value is 3%. Besides, the EC50 in assay [2] (setting [5]) stood at 20 nM.
Regarding `CCOC(=O)[C@@H]1C2CCC(C2)[C@@H]1NC(=O)c1nn(-c2ccc(F)cc2F)c2c1CCCCC2Cc1cccc(F)c1` (stereo partly drawn) [Cpd 111, (2R,3S)-3-{[1-(2,4-difluoro-phenyl)-8-(3-fluoro-benzyl)-1,4,5,6,7,8-hexahydro-cycloheptapyrazole-3-carbonyl]-amino}-bicyclo[2.2.1]heptane-2-carboxylic acid ethyl ester], in assay [1], the “CB2 receptor binding percent inhibition” value was 65%. Further, in assay [2] (setting [5]), the concentration giving a half-maximal response (EC50) stood at 90 nM. Further, the inhibition at 0.5 µM in assay [3] (read-out: CB1 receptor binding percent inhibition, test concentration 0.5 μM (footnote 10)) was found to be 45%. The inhibition at 1 µM in assay [3] (setting [7]) came out at 62%. The “CB1 receptor binding percent inhibition” value in assay [3] is listed as 54%.
`O=C(NC1CCCc2ccccc21)c1nn(-c2ccc(Cl)cc2Cl)c2c1CCCC/C2=C\c1ccc(F)cc1` (centres unmarked) [Cpd 209, (8E)-1-(2,4-dichloro-phenyl)-8-(4-fluoro-benzylidene)-1,4,5,6,7,8-hexahydro-cycloheptapyrazole-3-carboxylic acid (1,2,3,4-tetrahydro-naphthalen-1-yl)-amide]: the values for the inhibition at 0.2 µM in assay [1] (setting [4]) and in assay [3] were 8% and 88%, respectively. In assay [2] (setting [5]), this compound displayed an EC50 of 10 nM. The half-maximal inhibitory concentration (IC50) in assay [3] is 30 nM.
With `O=C(NN1CCCCC1)c1nn(-c2ccc(Cl)cc2Cl)c2c1CCCC/C2=C\c1ccc(Cl)cc1` [Cpd 133, (8E)-8-(4-chloro-benzylidene)-1-(2,4-dichloro-phenyl)-1,4,5,6,7,8-hexahydro-cycloheptapyrazole-3-carboxylic acid piperidin-1-ylamide], the inhibition at 0.25 µM turned out to be 29% in assay [1] (read-out: CB2 receptor binding percent inhibition, test concentration 0.25 μM (footnote 8)) and 66% in assay [3] (read-out: CB1 receptor binding percent inhibition, test concentration 0.25 μM (footnote 8)). Moreover, in assay [2] (setting [5]), the EC50 is 30 nM. The IC50 in assay [3] is 100 nM.
Regarding `C[C@@H](NC(=O)c1nn(-c2ccccc2Cl)c2c1CCCC/C2=C\c1ccc(Cl)cc1)c1ccccc1` [Cpd 190, (8E)-8-(4-chloro-benzylidene)-1-(2-chloro-phenyl)-1,4,5,6,7,8-hexahydro-cycloheptapyrazole-3-carboxylic acid [(1R)-1-phenyl-ethyl]-amide], the figures for the inhibition at 0.2 µM in assay [1] (setting [4]) and in assay [3] were 12% and 76%, respectively. Further, the EC50 in assay [2] (setting [5]) turned out to be 9 nM. Also, the half-maximal inhibitory concentration (IC50) in assay [3] is 80 nM.
With `Cn1nc(C(=O)N[C@H]2C3(C)CCC(C3)C2(C)C)c2c1C(Cc1ccccc1Cl)CCCC2` (stereo partly drawn) [Cpd 40, 8-(2-chloro-benzyl)-1-methyl-1,4,5,6,7,8-hexahydro-cycloheptapyrazole-3-carboxylic acid [(2S)-1,3,3-trimethyl-bicyclo[2.2.1]hept-2-yl]-amide], the inhibition at 0.015 µM in assay [1] (read-out: CB2 receptor binding percent inhibition, test concentration 0.015 μM (footnote 7)) turned out to be 65%. For the same compound, the inhibition at 1 µM in assay [1] (read-out: CB2 receptor binding percent inhibition, test concentration 1 μM (footnote 1)) came out at 84%; in assay [3] (setting [7]) it was 84%. Besides, in assay [1], the “CB2 receptor binding percent inhibition” value was found to be 75%. In addition, the EC50 in assay [2] (setting [8]) amounted to 100 nM. Further, the IC50 in assay [3] is 70 nM.
`C[C@H](NS(=O)(=O)/C=C/c1nn(C)c2c1CCCCC2Cc1cccc(F)c1)c1ccccc1` (stereo partly drawn) [Cpd 104, (2E)-2-[8-(3-fluoro-benzyl)-1-methyl-1,4,5,6,7,8-hexahydro-cycloheptapyrazol-3-yl]-ethenesulfonic acid [(1S)-1-phenyl-ethyl]-amide]: the “CB2 receptor binding percent inhibition” value in assay [1] turned out to be 93%. Moreover, the EC50 in assay [2] (setting [5]) was determined as 100 nM. Moreover, in assay [3] (setting [7]), the inhibition at 1 µM was determined as 19%.
On to `COc1ccc(/C=C2\CCCCc3c(C(=O)NC(C)c4ccccn4)nn(-c4ccc(Cl)cc4Cl)c32)cc1` (centres unmarked) [Cpd 222, (8E)-1-(2,4-dichloro-phenyl)-8-(4-methoxy-benzylidene)-1,4,5,6,7,8-hexahydro-cycloheptapyrazole-3-carboxylic acid (1-pyridin-2-yl-ethyl)-amide], for which, in assay [1] (setting [4]), the inhibition at 0.2 µM came to 41%. The compound further returned an EC50 in assay [2] (setting [5]) of 30 nM. In assay [3], the IC50 was 30 nM and the inhibition at 0.2 µM turned out to be 48%.
On to `C[C@H](NS(=O)(=O)/C=C/c1nn(-c2ccc(Cl)cc2Cl)c2c1CCCCC2Cc1cccc(Cl)c1)c1ccccc1` (stereo partly drawn) [Cpd 3, (2E)-2-[8-(3-chloro-benzyl)-1-(2,4-dichloro-phenyl)-1,4,5,6,7,8-hexahydro-cycloheptapyrazol-3-yl]-ethenesulfonic acid [(1S)-1-phenyl-ethyl]-amide], for which, in assay [1], the “CB2 receptor binding percent inhibition” value is on record as 26%. A half-maximal response in assay [2] (setting [5]) (EC50) required 70 nM. Further, in assay [3], the IC50 is 1300 nM. Besides, the inhibition at 1 µM in assay [3] (setting [7]) came out at 60%.
For the compound `C[C@H](NS(=O)(=O)/C=C/c1nn(-c2ccc(F)cc2F)c2c1CCCCC2Cc1cccc(F)c1)c1ccccc1` (stereo partly drawn) [Cpd 93, (2E)-2-[1-(2,4-difluoro-phenyl)-8-(3-fluoro-benzyl)-1,4,5,6,7,8-hexahydro-cycloheptapyrazol-3-yl]-ethenesulfonic acid [(1S)-1-phenyl-ethyl]-amide], in assay [1], the “CB2 receptor binding percent inhibition” value came to 58%. The compound also registered an EC50 in assay [2] (setting [5]) of 50 nM. Also, in assay [3], the IC50 is 400 nM. Besides, in assay [3] (setting [7]), the inhibition at 1 µM turned out to be 70%.
For the compound `COc1ccc(/C=C2\CCCCc3c(C(=O)N[C@H](C)c4ccccn4)nn(-c4ccc(Cl)cc4Cl)c32)cc1` [Cpd 227, (8E)-1-(2,4-dichloro-phenyl)-8-(4-methoxy-benzylidene)-1,4,5,6,7,8-hexahydro-cycloheptapyrazole-3-carboxylic acid [(1R)-1-pyridin-2-yl-ethyl)-amide], the inhibition at 0.2 µM in assay [1] (setting [4]) was found to be 19%; in assay [3] it was 90%. In assay [2] (setting [5]), this compound showed an EC50 of 2 nM. Also, the 50% inhibitory concentration (IC50) in assay [3] is 9 nM.
Take `O=C(N[C@@H](CO)Cc1ccccc1)c1n[nH]c2c1CCCCC2Cc1cccc(Cl)c1` (stereo partly drawn) [Cpd 167, 8-(3-chloro-benzyl)-1,4,5,6,7,8-hexahydro-cycloheptapyrazole-3-carboxylic acid [(1R)-1-benzyl-2-hydroxy-ethyl]-amide]: the results for the inhibition at 0.2 µM in assay [1] (setting [4]) and in assay [3] were 97% and 57%, respectively. The EC50 in assay [2] (setting [8]) came to 50 nM.
